# Test results reported in patent US5225411A, “Disubstituted polymethyleneimines” (priority 1990, dated 1993).
# Where “and” joins values, the source holds several entries; their conditions need not be identical. Equal entries are not always repeated. Where two headings read alike, the source gives them in different places.
# Columns and labels:
# [1] = system: murine leukaemia P 388/ADR 10; experiment: Evaluation of the increase in cytotoxicity of adriamycin on the line P 388/ADR-10 in vitro (reversion factor); format: cell-based; conditions: P 388/ADR 10, resistance induced by adriamycin
# [2] = system: murine leukaemia P388/ADR
# Description: D) In Vivo Reversion of the Acquired Resistance to Medicaments
# 10^6 cells are implanted by the intraperitoneal route into female B6 D2 F1 mice on day 0 and treatment commences the following day in accordance with the administration schemes indicated.
# The parameter measured is the survival time, allowing the calculation of T/C: [formula]
# The variation in weight is calculaed; it provides information on the toxicity of the treatment. The control groups comprise from 15 to 27 animals and the treated groups from 5 to 10 animals.
# Six independent experiments were carried out. The assays were performed over 4 days in accordance with the scheme D1-4 the tumour cells being implanted on DO and the reversing agent and the cytotoxic agnet being administered on D1, D2, D3, and D4.
# [3] = system: murine leukaemia P 388/ADR 10; experiment: Evaluation of the increase in cytotoxicity of adriamycin on the line P 388/ADR-10 in vitro (reversion factor); format: cell-based; conditions: for Reversion Factor (RF): adriamycin, P 388/ADR-10, 48 h, TOX = toxic
# Method: In this study, the cytotoxicity of adriamycin was measured in the absence and in the presence of the reversing compound.
# The compounds tested for their capacity to reverse MDR are added at the same time as the cytotoxic agent. The cells are then incubated for 48 hours.
# [4] = system: Chinese Hamster Pulmonary Line DC-3F/AD; experiment: Increase in the cytotoxicity of actinomycin D on the Chinese hamster pulmonary line DC-3F/AD; format: cell-based; conditions: 4 days;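 note: DC-3F/AD is an extremely resistant cell line whose resistance factor exceeds 10,000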
# Description: The cytotoxic agent used was actinomycin D.
# Line DC-3F/AD is an extremely resistant line. Its resistance factor is higher than 10,000.
# line DC-3F/AD = experiment: Flow cytometry, increase in fluorescence of ADR on the line DC-3F/AD; format: cell-based, Chinese Hamster; conditions: ADR 50 μM, 5 h
# Method: (§1) By measuring that fluorescence it is possible to obtain a relative measurement of the intracellular concentration of ADR.
# (§2) […] After 5 hours' incubation, the intracellular uptake of adriamycin was evaluated by FCM.
# (§3) The analysis of each of the samples was carried out on a total of 10,000 cells at a speed of 1000 cells/sec.
# (§4) The results were presented in the form of linear histograms of the intracellular ADR fluorescence.
# (§5) Expression of the Results
# (§6) For each of the histograms, the channel mean fluorescence was determined by the apparatus information system. For all experiments:
# (§7) A negative control (cells without ADR) fixed the autofluorescence threshold.
# (§8) A positive control (cells with ADR) determined the MEAN value=MN1.
# (§9) The "test" tubes (cells with ADR and with compound) were used to determine, for each of the compounds and at each of the concentrations, the MEAN values=MN2.
# (§10) The results are expressed in the form of variations from the mean fluorescence obtained for each of the "test" tubes (MN2) in relation to the mean fluorescence obtained with the […] (MNl) : VAR-MEAN=MN2 -MN1. The parameter expressed is thus the increase in the fluorescence of adriamycin in the presence of the tested compounds.
# line P 388/ADR 10 = experiment: Flow cytometry, increase in fluorescence of ADR on the line P 388/ADR 10; format: cell-based, murine; conditions: ADR 50 μM, 5 h
# Method: as §1, §2, §3, §4, §5, §6, §7, §8, §9, §10
# [5] = in vivo; cited from earlier work
# [6] = ADR 2 mg/kg alone, i.p., D1-4, n=2
# [7] = ADR 4 mg/kg alone, i.p., D1-4, n=6
# [8] = Example 1 50 mg/kg + ADR 2 mg/kg, i.p., D1-4, n=2
# [9] = Example 1 50 mg/kg + ADR 4 mg/kg, i.p., D1-4, n=2
# [10] = Example 1 50 mg/kg alone, i.p., D1-4, n=2
# [11] = Example 1 100 mg/kg + ADR 2 mg/kg, i.p., D1-4, n=2
# [12] = Example 1 100 mg/kg + ADR 4 mg/kg, i.p., D1-4, n=6
# [13] = Example 1 100 mg/kg alone, i.p., D1-4, n=6
# [14] = Example 1 200 mg/kg + ADR 2 mg/kg, i.p., D1-4, n=4
# [15] = Example 1 200 mg/kg alone, i.p., D1-4, n=4
structure (smiles),measurement,setting,value
"COc1cccc2c1C(=O)c1c(O)c3c(c(O)c1C2=O)C[C@@](O)(C(=O)CO)C[C@@H]3O[C@H]1C[C@H](N)[C@H](O)[C@H](C)O1 [ADR, adriamycin, reference compound]",factor of resistance in relation to the sensitive line,[1],260
same,"T/C, extreme values",[2]; [6],116.7-120%
same,"T/C, mean ± s.e.m.",[2]; [6],118.3%
same,"T/C, median",[2]; [6],118.3%
same,"T/C, extreme values",[2]; [7],105-130%
same,"T/C, mean ± s.e.m.",[2]; [7],115.1 ± 3.9%
same,"T/C, median",[2]; [7],112.5%
same,antitumour activity,"[2]; ADR alone, P388/ADR",not exhibiting any antitumour activity
same,T/C,"[2]; ADR alone, i.p.",< 120%
COC(=O)[C@H]1[C@H]2C[C@@H]3c4[nH]c5cc(OC)ccc5c4CCN3C[C@H]2C[C@@H](OC(=O)c2cc(OC)c(OC)c(OC)c2)[C@@H]1OC [RESERPINE],activity in reversing resistance in vitro,"[3]; P 388/ADR-10, adriamycin",very good activity in vitro
same,Reversion Factor (RF),[3]; compound 5 μM,215.5
same,Reversion Factor (RF),[3]; compound 10 μM,189
same,Reversion Factor (RF),[4]; compound 2.5 μM,258
same,Reversion Factor (RF),[4]; compound 5 μM,1085
same,Reversion Factor (RF),[4]; compound 10 μM,1649
same,Reversion Factor (RF),[4]; compound 20 μM,2024
same,Increase in fluorescence of ADR (VAR-MEAN = MN2 - MN1),line DC-3F/AD; compound 2 μM,26.18
same,Increase in fluorescence of ADR (VAR-MEAN = MN2 - MN1),line DC-3F/AD; compound 5 μM,29.43
same,Increase in fluorescence of ADR (VAR-MEAN = MN2 - MN1),line DC-3F/AD; compound 10 μM,31.73
same,Increase in fluorescence of ADR (VAR-MEAN = MN2 - MN1),line DC-3F/AD; compound 20 μM,29.95
same,Increase in fluorescence of ADR (VAR-MEAN = MN2 - MN1),line P 388/ADR 10; compound 2 μM,73.46
same,Increase in fluorescence of ADR (VAR-MEAN = MN2 - MN1),line P 388/ADR 10; compound 5 μM,80.48
same,Increase in fluorescence of ADR (VAR-MEAN = MN2 - MN1),line P 388/ADR 10; compound 10 μM,91.90
same,Increase in fluorescence of ADR (VAR-MEAN = MN2 - MN1),line P 388/ADR 10; compound 20 μM,85.39
same,toxicity,[5],high degree of toxicity
"C=CCNc1nc(NCC=C)nc(N2CCC(NCC(c3ccc(F)cc3)c3ccc(F)cc3)CC2)n1 [Example 1, 1-[4,6-bis(allylamino)-2-s-triazinyl]-4-[2,2-bis(p-fluorophenyl)ethylamino]piperidine]",Reversion Factor (RF),[3]; compound 2.5 μM,110.8
same,Reversion Factor (RF),[3]; compound 5 μM,244.4
same,Reversion Factor (RF),[3]; compound 10 μM,170.7
same,Reversion Factor (RF),[4]; compound 2.5 μM,171
same,Reversion Factor (RF),[4]; compound 5 μM,905
same,Reversion Factor (RF),[4]; compound 10 μM,2575
same,Reversion Factor (RF),[4]; compound 20 μM,TOX
same,Increase in fluorescence of ADR (VAR-MEAN = MN2 - MN1),line DC-3F/AD; compound 2 μM,18.27
same,Increase in fluorescence of ADR (VAR-MEAN = MN2 - MN1),line DC-3F/AD; compound 5 μM,26.13
same,Increase in fluorescence of ADR (VAR-MEAN = MN2 - MN1),line DC-3F/AD; compound 10 μM,35.57
same,Increase in fluorescence of ADR (VAR-MEAN = MN2 - MN1),line DC-3F/AD; compound 20 μM,43.63
same,Increase in fluorescence of ADR (VAR-MEAN = MN2 - MN1),line P 388/ADR 10; compound 2 μM,53.1
same,Increase in fluorescence of ADR (VAR-MEAN = MN2 - MN1),line P 388/ADR 10; compound 5 μM,74.1
same,Increase in fluorescence of ADR (VAR-MEAN = MN2 - MN1),line P 388/ADR 10; compound 10 μM,85.49
same,Increase in fluorescence of ADR (VAR-MEAN = MN2 - MN1),line P 388/ADR 10; compound 20 μM,78.5
same,"T/C, extreme values",[2]; [8],120-141.7%
same,"T/C, mean ± s.e.m.",[2]; [8],130.9%
same,"T/C, median",[2]; [8],130.9%
same,"T/C, extreme values",[2]; [9],116.7-140%
same,"T/C, mean ± s.e.m.",[2]; [9],128.4%
same,"T/C, median",[2]; [9],128.4%
same,"T/C, extreme values",[2]; [10],90-108.3%
same,"T/C, mean ± s.e.m.",[2]; [10],99.2%
same,"T/C, median",[2]; [10],99.2%
same,"T/C, extreme values",[2]; [11],116.7-140%
same,"T/C, mean ± s.e.m.",[2]; [11],128.4%
same,"T/C, median",[2]; [11],128.4%
same,"T/C, extreme values",[2]; [12],120-150%
same,"T/C, mean ± s.e.m.",[2]; [12],134.2 ± 4.4%
same,"T/C, median",[2]; [12],134.2%
same,"T/C, extreme values",[2]; [13],85-100%
same,"T/C, mean ± s.e.m.",[2]; [13],91.7 ± 2.8%
same,"T/C, median",[2]; [13],90%
same,increase in activity as a result of the compound of Example 1,"[2]; Example 1 200 mg/kg + ADR 2 mg/kg, i.p.",30.6%
same,"T/C, extreme values",[2]; [14],140-155.6%
same,"T/C, mean ± s.e.m.",[2]; [14],148.9% and 148.9 ± 3.2%
same,"T/C, median",[2]; [14],150%
same,activity,"[2]; Example 1 200 mg/kg + ADR 2 mg/kg, T/C ≥ 135% good activity",good activity
same,"T/C, extreme values",[2]; [15],80-88.9%
same,"T/C, mean ± s.e.m.",[2]; [15],83.5 ± 2.2%
same,"T/C, median",[2]; [15],82.5%
same,toxicity,"[2]; Example 1 alone, 200 mg/kg, i.p., T/C ≤ 85% toxic",only moderately toxic
same,antitumour activity,"[2]; Example 1 alone, 50 to 200 mg/kg, i.p.",does not possess any antitumour activity
same,activity,"[2]; Example 1 at 50 and 100 mg/kg (Table V: with ADR), T/C ≥ 120% moderate activity",modest activity
